Format in all cases: cell-based
Assay [1] concerns Aspergillus niger. Kind of assay: Minimal inhibitory concentration (MIC), gradient plate test, fungistasis. To be noted: Mycophil-Agar, 72 hours at 30° C. From the text: (§1) Measuring the minimal inhibitory concentration (MIC) towards bacteria and fungi in the gradient plate test
(§2) The compounds of the formula (1) in suitable formulations (for example as solutions in dimethylsulphoxide) of certain concentrations are mixed with warm brain heart infusion agar (bacteria) and Mycophil-Agar (fungi). The liquid mixtures are poured over a solidified, wedge-shaped basic agar layer and likewise allowed to solidify.
(§3) The test organisms are then applied by means of a Pasteur pipette in lines at right angles to the gradient. After an incubation period of 24 hours at 37° C. (bacteria) and 72 hours at 30° C. (fungi) the length of the germs grown on the inoculation line is measured and expressed in parts per million of active substance.

Assay [2] relates to Trichophyton mentagrophytes. The description is as above. To be noted: Mycophil-Agar, 72 hours at 30° C.
Source text: as §1, §2, §3

Another assay concerns Escherichia coli. The experiment in a line: Minimal inhibitory concentration (MIC), gradient plate test, bacteriostasis. To be noted: brain heart infusion agar, 24 hours at 37° C.
Source text: as §1, §2, §3

In assay [3] the test system is Staphylococcus aureus. The assay is described as above. Conditions: brain heart infusion agar, 24 hours at 37° C.
Source text: as §1, §2, §3

The subject of the next assay is Rhizopus nigricans. The experiment in a line: Minimal inhibitory concentration (MIC), dilution test, fungistasis. Conditions: beerwort solution, 72 hours at 30° C. As for the experimental part: (§4) Measuring the minimal inhibitory concentration (MIC) against bacteria and fungi in the dilution test
(§5) The minimal inhibitory concentration (MIC) is measured by a test derived from standardized methods which makes available an approximation to absolute minimal inhibitory values of an active substance.
(§6) A solution of 0.4% and 0.12% strength each in dimethylsulphoxide is prepared with the active substances. 0.25 ml of each of these solutions is added to 9.75 ml of sterile brain heart infusion broth (bacteria) and beerwort solution (fungi) respectively. By continual dilution to 10 times the volume two series are obtained which are combined and thereby converted into the following continuous dilution series:
(§7) 100, 30, 10, 3, 1 . . . part per million of active substance.
(§8) The solutions are inoculated with the bacterium Staphylococcus aureus and with fungi Aspergillus niger and Rhizopus nigricans respectively. Then incubation is performed for 48 hours at 37° C. (bacteriostasis) with Staphylococcue aureus and for 72 hours at 30° C. (fungistasis)with the fungi.

Assay [4] deals with Aspergillus niger. The description is as above. To be noted: beerwort solution, 72 hours at 30° C. How it is done: as §4, §5, §6, §7, §8
Assay [5] concerns Staphylococcus aureus. Kind of assay: Minimal inhibitory concentration (MIC), dilution test, bacteriostasis. Conditions: brain heart infusion broth, 48 hours at 37° C. As for the experimental part: as §4, §5, §6, §7, §8
Assay [6] has as its system Staphylococcus aureus. The experiment in a line: Activity of impregnated fabrics against bacteria (agar plate, inhibitory zone and growth). As for the experimental part: (§9) Samples of C. 100 g each of cotton creton are impregnated on a padder with a 1% solution of one of the compounds of the formula (1) in isopropanol at 20° C and then squeezed to a weight increase of 100%.
(§10) Samples of 100 g each of wool cheviot were treated in an identical manner.
(§11) After having been dried at 30° to 40° C. the fabrics contain 1% of active substance referred to their own weight.
To test the activity against bacteria round blanks of 10 mm diameter of the impregnated fabrics, one half of which untreated and the other after having been watered for 24 hours at 29° C., are placed on brain infusion agar plates previously inoculated with Staphylococcus aureus. The plates are then incubated for 24 hours at 37° C.
(§12) The evaluation extends, on one hand, to the inhibitory zones (IZ in mm) around the blanks and, on the other hand, on the growth (G in %) detected under a microscope underneath and/or on the fabric: […]

Assay [7] concerns Aspergillus niger. The experiment in a line: Fungicidal activity of impregnated paper (agar plate, inhibitory zone and growth). To be noted: paper with 1% of active substance, 72 hours at 30° C. How it is done:
(§13) Crude paper, which consists of 90% of bleached sulphite cellulose and 10% of birch pulp, is impregnated in a sizing press with a 2.5% solution of the compound of the formula (11) in methanol+water 2:1 to a weight increase of 40%.
(§14) The dried paper contains 1% of active substance referred to its original weight.
For testing its fungicidal activity round blanks of 25 mm diameter are placed on Mycophil-Agar plates and inoculated with Aspergillus niger, and the plates are incubated for 72 hours at 30° C.
(§15) The evaluation extends, on one hand, to the inhibitory zone (IZ in mm) around the paper blanks and, on the other hand, to the microscopically discernible growth (G in %) underneath and/or on the blanks: […]

Assay [8] concerns Aspergillus niger. The experiment in a line: Activity of impregnated fabrics against fungi (agar plate, inhibitory zone and growth). How it is done:
as §9, §10, §11
To test the activity against fungi round blanks of 25 mm diameter are placed on beerwort agar plates and then inoculated with Aspergillus niger, and the plates are then incubated for 72 hours at 30° C.
as §12

The test system of assay [9] is Staphylococcus aureus. Kind of assay: Antibacterial properties of impregnated paper (agar plate, inhibitory zone and growth). To be noted: paper with 1% of active substance, 24 hours at 37° C.
Source text: as §13, §14
To test its antibacterial properties round blanks of 10 mm diameter of the impregnated paper are placed on brain heart infusion agar plates previously inoculated with Staphylococcus aureus, and the plates are then incubated for 24 hours at 37° C.
as §15

The mark [10] stands for this setting: cotton with 1% of active substance, untreated.
Where [11] appears, read: wool with 1% of active substance, untreated.

Take `CCCCCCCCCCCC[N+](CCO)(CCO)Cc1ccccc1.[O-]c1cccc2cccnc12` [L]: in the assay with Aspergillus niger [1], the “Minimal inhibitory concentration, fungistasis, Aspergillus niger” value is on record as 6 ppm. In assay [2], the “Minimal inhibitory concentration, fungistasis, Trichophyton mentagrophytes” value stood at 6 ppm. Moreover, in the assay on Escherichia coli, the “Minimal inhibitory concentration, bacteriostasis, Escherichia coli” value came to 20 ppm. Besides, the “Minimal inhibitory concentration, bacteriostasis, Staphylococcus aureus” value in the assay on Staphylococcus aureus [3] was determined as 3 ppm.

As to “benzyl-bis-(2-hydroxyethyl)-dodecyl ammonium pentachlorophenolate”, the “Inhibitory values in ppm in fungistasis, Rhizopus nigricans (MIC)” value with Rhizopus nigricans came out at 10 ppm. Further, in the assay with Aspergillus niger [4], the “Inhibitory values in ppm in fungistasis, Aspergillus niger (MIC)” value turned out to be 10 ppm. Moreover, the “Inhibitory values in ppm in bacteriostasis, Staphylococcus aureus (MIC)” value with Staphylococcus aureus [5] is 10 ppm. The “inhibitory zone (IZ)” value in the assay on Staphylococcus aureus [6] (setting [10]) was 6 mm; in the assay with Staphylococcus aureus [6] (cotton with 1% of active substance, watered 24 hours at 29° C) it was 5 mm; in the assay on Staphylococcus aureus [6] (setting [11]), 6 mm; in the assay on Staphylococcus aureus [6] (wool with 1% of active substance, watered 24 hours at 29° C), 3 mm; in the assay on Aspergillus niger [7], 1 mm; in the assay with Aspergillus niger [8] (setting [10]), 7 mm. The “inhibitory zone (IZ)” value in the assay on Aspergillus niger [8] (cotton with 1% of active substance, watered) was 4 mm; with Aspergillus niger [8] (setting [11]), 0 mm; in the assay with Aspergillus niger [8] (wool with 1% of active substance, watered), 0 mm; in the assay on Staphylococcus aureus [9] it was 2.5 mm.
